Results reported in US9163020B2, “Azaindole compounds, synthesis thereof, and methods of using the same” (Global Alliance for TB Drug Development, priority 2013, dated 2015).
Converted amounts (≈) assume the structure as drawn.

System: Mycobacterium tuberculosis (Mtb) H37Rv ATCC 27294
Experiment: microbe, parasite or virus in culture
Format: cell-based
Conditions: Mycobacterium tuberculosis, Table 1; read-out: Mtb MIC

SMILES	MIC
CC(c1c(F)cccc1F)n1cc(C(=O)NCCF)c2ncccc21 (stereo not drawn) [Compound 1, 1-(1-(2,6-difluorophenyl)ethyl)-N-(2-fluoroethyl)-1H-pyrrolo[3,2-b]pyridine-3-carboxamide]	12.5 µM (≈ 4.34 µg/mL)
COc1ccc(F)cc1Cn1cc(C(=O)NCC2CC2)c2nccc(C)c21 [Compound 2, N-(Cyclopropylmethyl)-1-(5-fluoro-2-methoxybenzyl)-7-methyl-1H-pyrrolo[3,2-b]pyridine-3-carboxamide]	6.25 µM (≈ 2.3 µg/mL)
COc1ccc(F)c(F)c1Cn1cc(C(=O)NCCF)c2ncccc21 [Compound 5, 1-(2,3-difluoro-6-methoxybenzyl)-N-(2-fluoroethyl)-1H-pyrrolo[3,2-b]pyridine-3-carboxamide]	< 0.66 µM
COCCNC(=O)c1cn(Cc2cc(F)cnc2OC)c2cccnc12 [Compound 6]	1.3 µM (≈ 0.466 µg/mL)
COCCNC(=O)c1cn(Cc2ncnc(OC)c2C)c2cccnc12 [Compound 7, 1-((6-methoxy-5-methylpyrimidin-4-yl)methyl)-N-(2-methyl)-1H-pyrrolo[3,2-b]pyridine-3-carboxamide]	< 1.33 µM
COc1ncnc(Cn2cc(C(=O)NCCO)c3ncccc32)c1C [Compound 9, N-(2-hydroxyethyl)-1-((6-methoxy-5-methylpyrimidin-4-yl)methyl)-1H-pyrrolo[3,2-b]pyridine-3-carboxamide]	13.9 µM (≈ 4.75 µg/mL)
COc1ncnc(Cn2cc(C(=O)NCC3CC3)c3ncc(C)cc32)c1C [Compound 10, N-(cyclopropylmethyl)-1-((6-methoxy-5-methylpyrimidin-4-yl)methyl)-6-methyl-1H-pyrrolo[3,2-b]pyridine-3-carboxamide]	1.56 µM (≈ 0.57 µg/mL)
COCCNC(=O)c1cn(Cc2ncnc(OC)c2C)c2cc(C)cnc12 [Compound 11, 1-((6-methoxy-5-methylpyrimidin-4-yl)methyl)-N-(2-methoxyethyl)-6-methyl-1H-pyrrolo[3,2-b]pyridine-3-carboxamide]	0.781 µM (≈ 0.289 µg/mL)
Cc1c(OCC(F)(F)F)ccnc1Cn1cc(C(=O)NCCF)c2ncccc21 [Compound 12, N-(2-fluoroethyl)-1-((3-methyl-4-(2,2,2-trifluoroethoxy)pyridin-2-yl)methyl)-1H-pyrrolo[3,2-b]pyridine-3-carboxamide]	6.25 µM (≈ 2.56 µg/mL)
COc1ncc(C(F)(F)F)cc1Cn1cc(C(=O)NCCF)c2ncccc21 [Compound 13, N-(2-fluoroethyl)-1-((2-methoxy-5-(trifluoromethyl)pyridin-3-yl)methyl)-1H-pyrrolo[3,2-b]pyridine-3-carboxamide]	< 0.53 µM
COc1ncc(C#N)cc1Cn1cc(C(=O)NCCF)c2ncccc21 [Compound 14, 1-((5-cyano-2-methoxypyridin-3-yl)methyl)-N-(2-fluoroethyl)-1H-pyrrolo[3,2-b]pyridine-3-carboxamide]	3.12 µM (≈ 1.1 µg/mL)
COc1ncc(F)cc1Cn1cc(C(=O)NCCF)c2ncc(C)cc21 [Compound 15, 1-((5-fluoro-2-methoxypyridin-3-yl)methyl)-N-(2-fluoroethyl)-6-methyl-1H-pyrrolo[3,2-b]pyridine-3-carboxamide]	1.56 µM (≈ 0.562 µg/mL)
COc1ncnc(Cn2cc(C(=O)NC[C@H](C)F)c3ncc(C)cc32)c1C [Compound 16, (S)—N-(2-fluoropropyl)-1-((6-methoxy-5-methylpyrimidin-4-yl)methyl)-6-methyl-1H-pyrrolo[3,2-b]pyridine-3-carboxamide]	0.156 µM (≈ 0.0579 µg/mL)
COc1nc(C)c(F)cc1Cn1cc(C(=O)NCCF)c2ncccc21 [Compound 18, 1-((5-fluoro-2-methoxy-6-methylpyridin-3-yl)methyl)-N-(2-fluoroethyl)-1H-pyrrolo[3,2-b]pyridine-3-carboxamide]	0.781 µM (≈ 0.281 µg/mL)
COc1ncnc(Cn2cc(C(=O)NCCF)c3ncc(F)cc32)c1C [Compound 19, 6-fluoro-N-(2-fluoroethyl)-1-((6-methoxy-5-methylpyrimidin-4-yl)methyl)-1H-pyrrolo[3,2-b]pyridine-3-carboxamide]	6.25 µM (≈ 2.26 µg/mL)
COc1ncnc(Cn2cc(C(=O)NCCF)c3ncc(Br)cc32)c1C [Compound 20, 6-bromo-N-(2-fluoroethyl)-1-((6-methoxy-5-methylpyrimidin-4-yl)methyl)-1H-pyrrolo[3,2-b]pyridine-3-carboxamide]	0.781 µM (≈ 0.33 µg/mL)
Cc1cnc2c(C(=O)NCCF)cn(Cc3nccc(OCC(F)(F)F)c3C)c2c1 [Compound 21, N-(2-fluoroethyl)-6-methyl-1-((3-methyl-4-(2,2,2-trifluoroethoxy)pyridin-2-yl)methyl)-1H-pyrrolo[3,2-b]pyridine-3-carboxamide]	1.56 µM (≈ 0.662 µg/mL)
COc1ncc(C(F)(F)F)cc1Cn1cc(C(=O)NC[C@H](C)F)c2ncc(C)cc21 [Compound 22, (S)—N-(2-fluoropropyl)-1-((2-methoxy-5-(trifluoromethyl)pyridin-3-yl)methyl)-6-methyl-1H-pyrrolo[3,2-b]pyridine-3-carboxamide]	< 0.391 µM

SMILES	MIC
COc1ncnc(Cn2cc(C(=O)NCCOC(F)(F)F)c3ncccc32)c1C [Compound 23, 1-((6-methoxy-5-methylpyrimidin-4-yl)methyl)-N-(2-(trifluoromethoxy)ethyl)-1H-pyrrolo[3,2-b]pyridine-3-carboxamide]	3.12 µM (≈ 1.28 µg/mL)
COc1ncc(F)cc1Cn1cc(C(=O)NC[C@H](C)F)c2ncc(C)cc21 [Compound 24, (S)-1-((5-fluoro-2-methoxypyridin-3-yl)methyl)-N-(2-fluoropropyl)-6-methyl-1H-pyrrolo[3,2-b]pyridine-3-carboxamide]	< 0.391 µM
COc1ncnc(Cn2cc(NC(=O)CC3CC3)c3ncccc32)c1C [Compound 25, 2-cyclopropyl-N-(1-((6-methoxy-5-methylpyrimidin-4-yl)methyl)-1H-pyrrolo[3,2-b]pyridin-3-yl)acetamide]	25 µM (≈ 8.79 µg/mL)
Cc1cnc2c(C(=O)NCCF)cn(Cc3cc(F)c(C)nc3C)c2c1 [Compound 26, 1-((5-fluoro-2,6-dimethylpyridin-3-yl)methyl)-N-(2-fluoroethyl)-6-methyl-1H-pyrrolo[3,2-b]pyridine-3-carboxamide]	3.12 µM (≈ 1.12 µg/mL)
Cc1cnc2c(C(=O)NCCO)cn(Cc3nccc(OCC(F)(F)F)c3C)c2c1 [Compound 27, N-(2-hydroxyethyl)-6-methyl-1-((3-methyl-4-(2,2,2-trifluoroethoxy)pyridin-2-yl)methyl)-1H-pyrrolo[3,2-b]pyridine-3-carboxamide]	3.12 µM (≈ 1.32 µg/mL)
COc1ncnc(Cn2cc(C(=O)NC[C@@H](C)O)c3ncc(C)cc32)c1C [Compound 28, (R)—N-(2-hydroxypropyl)-1-((6-methoxy-5-methylpyrimidin-4-yl)methyl)-6-methyl-1H-pyrrolo[3,2-b]pyridine-3-carboxamide]	6.25 µM (≈ 2.31 µg/mL)
Cc1cnc2c(C(=O)NCCF)cn(Cc3ncnc(N(C)C)c3C)c2c1 [Compound 29, 1-((6-(dimethylamino)-5-methylpyrimidin-4-yl)methyl)-N-(2-fluoroethyl)-6-methyl-1H-pyrrolo[3,2-b]pyridine-3-carboxamide]	1.56 µM (≈ 0.578 µg/mL)
Cc1cnc2c(C(=O)NCCO)cn(Cc3ncnc(OC(F)F)c3C)c2c1 [Compound 35, 1-((6-(Difluoromethoxy)-5-methylpyrimidin-4-yl)methyl)-N-(2-hydroxyethyl)-6-methyl-1H-pyrrolo[3,2-b]pyridine-3-carboxamide]	< 0.39 µM
COc1cnc2c(C(=O)NCCF)cn(Cc3ncnc(OC)c3C)c2c1 [Compound 36, N-(2-fluoroethyl)-6-methoxy-1-((6-methoxy-5-methylpyrimidin-4-yl)methyl)-1H-pyrrolo[3,2-b]pyridine-3-carboxamide]	< 0.39 µM
COc1cnc2c(C(=O)NCC(F)F)cn(Cc3ncnc(OC)c3C)c2c1 [Compound 37, N-(2,2-difluoroethyl)-6-methoxy-1-((6-methoxy-5-methylpyrimidin-4-yl)methyl)-1H-pyrrolo[3,2-b]pyridine-3-carboxamide]	< 0.39 µM
COc1cnc2c(C(=O)NCCO)cn(Cc3ncnc(OC)c3C)c2c1 [Compound 38, N-(2-hydroxyethyl)-6-methoxy-1-((6-methoxy-5-methylpyrimidin-4-yl)methyl)-1H-pyrrolo[3,2-b]pyridine-3-carboxamide]	0.78 µM (≈ 0.29 µg/mL)
COc1cnc2c(C(=O)NCCF)cn(Cc3ncnc(N(C)C)c3C)c2c1 [Compound 39, 1-((6-(Dimethylamino)-5-methylpyrimidin-4-yl)methyl)-N-(2-fluoroethyl)-6-methoxy-1H-pyrrolo[3,2-b]pyridine-3-carboxamide]	< 0.39 µM
COc1cnc2c(C(=O)NCC(F)F)cn(Cc3ncnc(N(C)C)c3C)c2c1 [Compound 40, N-(2,2-Difluoroethyl)-1-((6-(dimethylamino)-5-methylpyrimidin-4-yl)methyl)-6-methoxy-1H-pyrrolo[3,2-b]pyridine-3-carboxamide]	< 0.39 µM
COc1cnc2c(C(=O)NCCO)cn(Cc3ncnc(N(C)C)c3C)c2c1 [Compound 41, 1-((6-(Dimethylamino)-5-methylpyrimidin-4-yl)methyl)-N-(2-hydroxyethyl)-6-methoxy-1H-pyrrolo[3,2-b]pyridine-3-carboxamide]	< 0.39 µM
COc1cnc2c(C(=O)NCCF)cn(Cc3ncnc(OC(F)F)c3C)c2c1 [Compound 42, 1-((6-(Difluoromethoxy)-5-methylpyrimidin-4-yl)methyl)-N-(2-fluoroethyl)-6-methoxy-1H-pyrrolo[3,2-b]pyridine-3-carboxamide]	< 0.39 µM
COc1cnc2c(C(=O)NCC(F)F)cn(Cc3ncnc(OC(F)F)c3C)c2c1 [Compound 43, N-(2,2-Difluoroethyl)-1-((6-(difluoromethoxy)-5-methylpyrimidin-4-yl)methyl)-6-methoxy-1H-pyrrolo[3,2-b]pyridine-3-carboxamide]	< 0.39 µM
COc1cnc2c(C(=O)NCCO)cn(Cc3ncnc(OC(F)F)c3C)c2c1 [Compound 44, 1-((6-(difluoromethoxy)-5-methylpyrimidin-4-yl)methyl)-N-(2-hydroxyethyl)-6-methoxy-1H-pyrrolo[3,2-b]pyridine-3-carboxamide]	0.78 µM (≈ 0.318 µg/mL)

Same assay, conditions: Table 1; read-out: Mtb MIC

SMILES	MIC
COc1ncnc(Cn2cc(C(=O)NCC(F)F)c3ncc(C)cc32)c1C [Compound 33, N-(2,2-difluoroethyl)-1-((6-methoxy-5-methylpyrimidin-4-yl)methyl)-6-methyl-1H-pyrrolo[3,2-b]pyridine-3-carboxamide]	<0.39 µM
